# According to PMC7767178 (International Journal of Molecular Sciences, 2020):
# Where a name gives a salt, the structure may show the parent alone. Read-outs that look alike come from different tables or passages of the source.
# Key:
# A. veronii ACCC61732 [1] = test: microbe, parasite or virus in culture; format: cell-based; settings: for MIC: Aeromonas veronii; for MICa, MIC of the antibiotic used alone: checkerboard
# Description: The checkerboard microtiter assay was used to determine the combinations of peptides with different antibiotics (including quinolone, rifamycin, peptide antibiotics, aminoglycoside, tetracycline, and chloramphenicol). […] The fractional inhibitory concentration (FIC) was used to calculate the combination effects using the following formula: FIC index (FICI) = MIC(peptide in combination)/MIC(peptide alone) + MIC(antibiotic in combination)/MIC(antibiotic alone). FICI ≤ 0.5 means synergistic, 0.5 < FICI ≤ 1 means additive action, 1 < FICI ≤ 4 means indifference, and FICI > 4 means antagonism.
# Gram-negative bacteria = settings: data not shown; ref our previous study; cited from earlier work
# Description: A. veronii is a widely distributed novel pathogen that can infect humans and animals. Due to overuse of broad-spectrum antibiotics in fish hatcheries, agriculture, and clinical settings, there has been an increase in antibiotic resistance of Aeromonas species, illustrating an emerging potential health concern.
# A. veronii ACCC61732 [2] = test: Resistance development, 30 serial passages; format: cell-based; settings: A. veronii ACCC61732, 30 passages (30 days)
# Procedure: The development of bacterial resistance of peptides was performed by the MIC assays. […] GEN, CIP, and PMB were used as controls. […] The MIC values were measured as described above. The serial passaging was repeated for 30 days.
# A. veronii ACCC61732 [3] = test: Outer membrane permeabilization, NPN assay; format: cell-based; settings: NPN fluorescence, 1×–4× MIC
# Procedure: The outer membrane permeabilization abilities of peptides were determined using the fluorescent NPN assay. Mid-log phase A. veronii ACCC61732 was collected by centrifugation, washed twice, and then suspended in N-2-hydroxyethylpiperazine-n-2-ethane sulfonic acid (HEPES) buffer (pH 7.4) to an OD600nm = 0.4. […] Fluorescence intensity was recorded until no further increase with a microplate reader (excitation/emission, 328/438 nm).
# [4] = ACCC61732, checkerboard, Tables S1–S5, identical values of one substance within a block given once, read-out: MICa, MIC of the antibiotic used alone
# [5] = Tables S1–S5, identical values of one substance within a block given once
molecule,measurement,setting,value
"[H]/N=C(/N)N[C@H]1[C@H](O)[C@@H](O)[C@H](O[C@@H]2O[C@@H](C)[C@](O)(C=O)[C@H]2O[C@@H]2O[C@@H](CO)[C@H](O)[C@@H](O)[C@@H]2NC)[C@@H](N/C(N)=N\[H])[C@@H]1O [STRE, streptomycin sulfate]",MIC,A. veronii ACCC61732 [1]; [4],64 µg/mL
"CCN1CCN(c2cc3c(cc2F)c(=O)c(C(=O)O)cn3C2CC2)CC1 [ENRO, enrofloxacin]",MIC,A. veronii ACCC61732 [1]; [4],0.25 µg/mL
"VCVYRCHRRANGFAWNNGVRV [N2413, analog of N6 without the β-sheet structural feature]",antimicrobial activity against Gram-negative bacteria,Gram-negative bacteria,lost the antimicrobial activity
"polymyxin B [PMB, reference compound]","MICa, MIC of the antibiotic used alone",A. veronii ACCC61732 [1]; [5],8 µg/mL
same,increase of MIC after 30 serial passages,A. veronii ACCC61732 [2],one-fold
same,ability to penetrate the outer membrane,A. veronii ACCC61732 [3],higher ability to penetrate the outer membrane than N6NH2
"CC1COc2c(N3CCN(C)CC3)c(F)cc3c(=O)c(C(=O)O)cn1c23 (stereo not shown) [OFX, ofloxacin]",MIC,A. veronii ACCC61732 [1]; [4],0.25 µg/mL
"O=C(N[C@H](CO)[C@H](O)c1ccc([N+](=O)[O-])cc1)C(Cl)Cl [CHLO, chloramphenicol]",MIC,A. veronii ACCC61732 [1]; [4],0.25 µg/mL
"CCn1cc(C(=O)O)c(=O)c2cc(F)c(N3CCNCC3)cc21 [NOR, norfloxacin]",MIC,A. veronii ACCC61732 [1]; [4],0.5 µg/mL
"CNC(C)C1CCC(N)C(OC2C(N)CC(N)C(OC3OCC(C)(O)C(NC)C3O)C2O)O1 (stereo not shown) [GEN, gentamicin, reference compound]",increase of MIC after 30 serial passages,A. veronii ACCC61732 [2],31 fold
doxycycline hyclate,"MICa, MIC of the antibiotic used alone",A. veronii ACCC61732 [1]; [5],1 µg/mL
"AACCGFWNVVYRNGVRVHRRN [SN1, analog of N6 without the β-sheet structural feature]",antimicrobial activity against Gram-negative bacteria,Gram-negative bacteria,lost the antimicrobial activity
"CN[C@H](CC(C)C)C(=O)N[C@H]1C(=O)N[C@@H](CC(N)=O)C(=O)N[C@H]2C(=O)N[C@H]3C(=O)N[C@H](C(=O)N[C@H](C(=O)O)c4cc(O)cc(O)c4-c4cc3ccc4O)[C@H](O)c3ccc(c(Cl)c3)Oc3cc2cc(c3O[C@@H]2O[C@H](CO)[C@@H](O)[C@H](O)[C@H]2O[C@H]2C[C@](C)(N)[C@H](O)[C@H](C)O2)Oc2ccc(cc2Cl)[C@H]1O [VAN, vancomycin]",MIC,"A. veronii ACCC61732 [1]; ACCC61732, read-out: MICa, MIC of the antibiotic used alone",16 µg/mL
"GFWNVVYRNGVAACCRVHRRN [SN3, analog of N6 without the β-sheet structural feature]",antimicrobial activity against Gram-negative bacteria,Gram-negative bacteria,lost the antimicrobial activity
"VCVYRGFAWNCHRRANNGVRV [N2143, analog of N6 without the β-sheet structural feature]",antimicrobial activity against Gram-negative bacteria,Gram-negative bacteria,lost the antimicrobial activity
"NC[C@H]1O[C@H](O[C@H]2[C@H](O)[C@@H](O[C@H]3O[C@H](CO)[C@@H](O)[C@H](N)[C@H]3O)[C@H](N)C[C@@H]2N)[C@H](O)[C@@H](O)[C@@H]1O [KANA, kanamycin sulfate]",MIC,A. veronii ACCC61732 [1]; [4],8 µg/mL
